{"source": "patent US6423725B1", "about": "(dated 2002)", "note": "Counter-ions that a name gives are not always drawn.", "data": [{"compound": "CC1(C)CCC(c2ccccc2)(N2CCC(n3c(=O)[nH]c4ccccc43)CC2)CC1", "note": "(as salt: hydrochloride)", "values": [{"measurement": "melting point", "value": 256, "unit": "°C"}]}, {"compound": "O=c1[nH]c2ccccc2n1C1CCN(C2(c3ccccc3)CCCCCCC2)CC1", "note": "(as salt: hydrochloride)", "values": [{"measurement": "melting point", "value": 196, "unit": "°C"}]}, {"compound": "O=c1[nH]c2ccccc2n1C1CCN(C2(c3ccccc3)CCCCCCCC2)CC1", "note": "(as salt: hydrochloride)", "values": [{"measurement": "melting point", "value": 187, "unit": "°C"}]}, {"compound": "O=c1[nH]c2ccccc2n1C1CCN(C2(c3ccccc3)CCCCCCCCC2)CC1", "note": "(as salt: hydrochloride)", "values": [{"measurement": "melting point", "value": 217, "unit": "°C"}]}, {"compound": "O=c1[nH]c2ccccc2n1C1CCN(C2(c3ccccc3)CCCCCCCCCC2)CC1", "note": "(as salt: hydrochloride)", "values": [{"measurement": "melting point", "value": "196 to 202", "unit": "°C"}]}, {"compound": "O=c1[nH]c2ccccc2n1C1CCN(C2(c3ccccc3)CCCCCCCCCCC2)CC1", "note": "(as salt: hydrochloride)", "values": [{"measurement": "melting point", "value": 251, "unit": "°C"}]}, {"compound": "O=c1[nH]c2ccccc2n1C1CCN(C2(c3ccc(F)cc3)CCCCCC2)CC1", "note": "(as salt: hydrochloride)", "values": [{"measurement": "melting point", "value": "185 to 192", "unit": "°C"}]}, {"compound": "O=c1[nH]c2ccccc2n1C1CCN(C2(c3cccc(F)c3)CCCCCC2)CC1", "note": "(as salt: hydrochloride)", "values": [{"measurement": "melting point", "value": "196 to 199", "unit": "°C"}]}, {"compound": "COc1cccc(C2(N3CCC(n4c(=O)[nH]c5ccccc54)CC3)CCCCCC2)c1", "note": "(as salt: hydrochloride)", "values": [{"measurement": "melting point", "value": "216 to 218", "unit": "°C"}]}, {"compound": "COc1ccccc1C1(N2CCC(n3c(=O)[nH]c4ccccc43)CC2)CCCCCC1", "note": "(as salt: hydrochloride)", "values": [{"measurement": "melting point", "value": "167 to 173", "unit": "°C"}]}, {"compound": "CC(C)(C)C1CCC(c2ccccc2)(N2CCC(n3c(=O)[nH]c4ccccc43)CC2)CC1", "note": "(stereo not drawn) (as salt: hydrochloride)", "values": [{"measurement": "melting point", "value": "218 to 219", "unit": "°C"}]}, {"compound": "O=C(c1ccccc1)c1ccc2c(c1)[nH]c(=O)n2C1CCN(C2(c3ccccc3)CCCCCC2)CC1", "note": "(as salt: hydrochloride)", "values": [{"measurement": "melting point", "value": "118 to 122", "unit": "°C"}]}, {"compound": "CCCC1(N2CCC(n3c(=O)[nH]c4ccccc43)CC2)CCC2(CCCCC2)CC1", "note": "(as salt: hydrochloride)", "values": [{"measurement": "melting point", "value": "240 to 247", "unit": "°C"}]}, {"compound": "CNCCn1c(=O)n(C2CCN(C3(c4ccccc4)CCCCCC3)CC2)c2ccccc21", "note": "(as salt: hydrochloride)", "values": [{"measurement": "melting point", "value": 217, "unit": "°C"}]}, {"compound": "COc1ccc(C2(N3CCC(n4c(=O)[nH]c5ccccc54)CC3)CCCCC2)cc1", "note": "(as salt: hydrochloride)", "values": [{"measurement": "melting point", "value": "193 to 197", "unit": "°C"}]}]}
